Assay [1] has as its system T cells. Put plainly: Acetazolamide dose response of IL15 expression on transduced T cells (flow cytometry). It counts as cell-based, human. Particulars: ACZ 24 hrs starting at 100 μM, diluted 3-fold for 9 points. Here is the method:
Cells were treated with different concentrations of ACZ (ligand) starting at 100 μM for 24 hrs. Graphs show % IL15+ T Cells (FIG. 4A) and mean fluorescence intensity (MFI) of IL15 (FIG. 4B).
The effect of different concentrations of ACZ on IL15 expression was tested. T cells were treated with ACZ for 24 hrs starting at 100 μM, diluted 3-fold for 9 points. Both % IL15+ T Cells (FIG. 4A) and IL15 Mean Fluorescence Intensity (MFI) (FIG. 4B) analysis indicated similar dose curves for OT-IL15-293 and OT-IL15-295. There was 4-5-fold increase in expression (both % IL15+ T cells and IL15 MFI) between highest and lowest concentrations of ACZ.
For orientation: In flow cytometry, cells or beads pass a laser one at a time.

Assay [2] concerns TIL. The assay can be described thus: Expression of regulated mbIL15 in TIL in response to ACZ (anti-IL15 and IL15Ra-Fc co-staining). In kind it is cell-based, human. The method, then: HEK293T cells were seeded on collagen coated tissue culture plates until 70% confluent. Cells were transfected with pELNS transfer vector carrying constitutive (IL15-292) or regulated (IL15-293) IL15 constructs, as well as packaging plasmids (pRSV.REV, pMDLg/pRRE and OT-BaEVg-002 (SEQ ID NO: 51)) using Lipofectamine 3000 transfection reagent in Opti-MEM media. Media was replaced 6-8 hrs post-transfection with serum-free media. Supernatants containing virus were harvested 24 hr post-transfection, fresh media was added, and supernatants were harvested again at 48 hr post-transfection. Viral supernatants were filtered to remove debris and concentrated by low speed ultracentrifugation. Virus were resuspended, aliquoted and stored at −80 C freezer.
96-well non-coated tissue culture plates were incubated with 35 μg per mL RetroNectin (Takara Bio) in PBS for 2 h at 37° C. or overnight at 4° C. RetroNectin was removed and the plates washed with PBS. BaEV-pseudotyped lentivirus, prepared as described above, and TIL cell media, at a total volume of 50 μL per well, were added to each well and the plates were centrifuged at low speed for 2 hours at 32° C. TIL generated from a head and neck tumor sample prepared as described in Example 5 were engineered after 3 weeks in the pre-REP culture. TIL were activated for 24 hrs in 24-well plates with anti-CD3/CD28 beads at 3:1 bead to T cell ratio. Activated TIL were placed in virus-coated plates and centrifuged at 800 g for 2 hrs and incubated at 37° C. for 4 days in culture media. One well of cells was processed similarly without virus addition and used as negative control (“untransduced”). Cells that were transduced with the regulated mbIL15 construct were treated either with 10 μM ACZ or DMSO for 24 hrs.
mbIL15 expression was determined by flow cytometry using two staining reagents: fluorochrome-conjugated anti-IL15 antibody as well as a recombinant protein comprised of extracellular domain of IL15Ra fused to human IgG1 Fc domain (IL15Ra-Fc). mbIL15+ cell frequency was determined based on co-staining with anti-IL15 and IL15Ra-Fc (identified as the IL15+IL15Ra-Fc+ double positive population).

In assay [3] the test system is T cells. The assay can be described thus: IL15 expression on T cells in vivo on day 25 (IL15Ra-Fc staining, flow cytometry). More on the design: species or system NSG mice. Particulars: day 25, treated with ACZ 200 mg/kg daily PO. The method, then: Human primary T cells capable of expressing constitutive mbIL15 or ACZ-regulated mbIL15 were prepared in accordance with methods described in Example 1 above. After T cell transduction and expansion, CD3/CD28 beads were removed using magnets, cells were washed twice, resuspended in fresh media and counted. T cells were mixed with expanded NK cells and each animal received 5×10^6 T cells and 2×10^6 expanded NK cells. Cells were infused by intravenous injections into NSG mice. Animals infused with T cells expressing regulated constructs were dosed daily with 200 mg/kg ACZ or vehicle by PO injections. Every 3-4 days, 50 μL blood was analyzed by flow cytometry for presence of T cells and NK cells using antibodies against mouse and human CD45, CD3 and CD56. IL15 expression on day 25 was analyzed using IL15Ra-Fc and fluorochrome conjugated anti-human IgG antibody.
IL15 expression on T cells in vivo on day 25 was analyzed by flow cytometry (FIG. 5C). T cells transduced with constitutive constructs IL15-292 and IL15-294 expressed high levels of IL15 (82% and 61%). IL15 expression was <1.5% in vehicle-treated IL15-293 and IL15-295 as well as EV groups. IL15 expression levels were 11% and 9% on T cells transduced with IL15-293 and IL15-295 in groups treated with ACZ.

Assay [4] has as its system HL-60-luc. The assay can be described thus: HL-60 animal model of acute myeloid leukemia with engineered NK cells. It counts as in vivo, NSG mice. Here is the method:
To evaluate the effect of regulated mbIL15 on the anti-tumor activity of NK cells, an HL-60 animal model of acute myeloid leukemia is used. Cord blood NK cells are transduced with BaEV-pseudotyped lentiviral vectors containing either the IL15-292 construct or the IL15-293 construct, as described in Example 9, or with BaEV-pseudotyped lentiviral empty vector (EV), and optionally frozen after transduction. HL-60 cells expressing luciferase (HL-60-luc) are injected intravenously (1×10^6/mouse) into NSG mice and tumor growth is measured once or twice per week by bioluminescence imaging measurement (total flux units in photons per second (p/s) after intraperitoneal injections of D-luciferin). On day 6, animals are randomized into new cages (N=8 for each group) when average tumor size reaches approximately 10^6 total p/s. […]
Group 1 receives NK cells engineered with EV as a negative control, and group 2 receives NK cells transduced with constitutive mbIL5 (construct IL15-292). […] Red blood cells are lysed, stained with fluorochrome-conjugated antibodies against human CD45, CD3 and mouse CD45, and cells are analyzed by flow cytometry. Tumor growth is measured up to approximately 30 days; endpoints include maximal total flux units (10^10) as well as effects on animal health such as hind-limb paralysis and decrease in body weight.

In assay [5] the test system is cord blood-derived NK cells. The assay can be described thus: Regulation of mbIL15 construct with ACZ in cord blood-derived NK cells (IL15Ra-Fc and anti-CD56 FACS). In kind it is cell-based, human. Particulars: DMSO overnight, regardless of donor. Here is the method: One day prior to NK cell isolation as described in Example 8, feeder cells (K562 cells expressing 4-1BBL and mblL-21) were thawed in complete NK cell media (RPMI with Glutamax (ThermoFisher), 10% heat-inactivated fetal bovine serum (Gibco), 1× Penicillin/Streptomycin, 1 mM Sodium Pyruvate, 1×HEPES, 50 μM 2-Mercaptoethanol). On the day of NK cell isolation, 10×10^6 feeder cells were treated with mitomycin C to inhibit their proliferation and washed to remove excess drug. NK cells were added to the feeder cells at a 1:2 effector to target ratio in NK cell media with 200 U/mL recombinant human IL2 (rhIL2; PeproTech). NK cell cultures were expanded by replenishing cell cultures with NK cell media and rhIL2 every two days, and analyzed by FACS for NK cell expansion.
96-well non-coated tissue culture plates were incubated with 35 μg per mL RetroNectin (Takara Bio) in PBS for 2 h at 37° C. or overnight at 4° C. RetroNectin was removed and the plates washed with PBS. […]
NK cells from three different donors were isolated, expanded and transduced with BaEV-pseudotyped lentivirus containing either the IL15-292 construct or the IL15-293 construct. The titer of the IL15-292 lentivirus was 2.38×10^8 TU/mL while the titer for the IL15-293 lentivirus was 6.51×10^8 TU/mL (as measured by a Jurkat qPCR titer), and 4 μL lentivirus and 46 μL NK cell media were added to each well. […]

Assay [6] has as its system TIL-matched patient-derived xenografts (hPDX). Put plainly: Human PDX (hPDX) model with engineered matched TIL. It counts as in vivo, NSG mice.
Excerpt: To evaluate the effect of regulated mbIL15 on the anti-tumor activity of tumor infiltrating lymphocytes (TIL), a human PDX (hPDX) model is used. […] TIL are transduced with BaEV-pseudotyped lentiviral vectors containing either the IL15-292 construct or the IL15-293 construct, as described in Example 6, or with BaEV-pseudotyped lentiviral empty vector (EV), and then optionally frozen. TIL-matched patient-derived xenografts (hPDX) from the tumor sample are established via subcutaneous implant into the right flank of NSG mice. Tumor growth is measured once or twice per week using calipers. On study start, tumors are measured, and mice are randomized and placed in cohorts based on similar mean tumor volume across all groups into new cages (N=8 for each group). […]
Group 1 receives untransduced TIL supplemented with recombinant human IL2 (hIL2) as benchmark control, and group 2 receives TIL transduced with constitutive mbIL15 (IL15-292). […] Blood (50 μL) was withdrawn from submandibular veins on pre-determined days. Red blood cells are lysed, stained with fluorochrome-conjugated antibodies against human CD45, CD3 and mouse CD45, and cells are analyzed by flow cytometry. Tumor growth is measured for up to approximately 90 days; endpoints include maximal caliper measurements as well as effects on animal health, such as tumor necrosis and decrease in body weight.
Assay [7] deals with Human primary T cells. The assay can be described thus: In vitro antigen-independent expansion of T cells transduced with constitutive or ACZ-regulated mbIL15 constructs (cell numbers by flow cytometry). It counts as cell-based. The method, then: T cells were thawed, cells were washed and counted. T cells were mixed with CD3/CD28 beads (Invitrogen cat#11141D) at 3:1 bead to T cell ratio. 5×10^5 cells/well were added to 24-well plates in 500 μL media. Cells were activated for 24 hrs. Next day, lentivirus was thawed and added to each well at different volumes. After 24 hrs, 500 μL of fresh media was added to wells, and cells were expanded by adding equal volume of fresh media every 2-3 days to keep cell density at 0.5-1×10^6/mL. Cells were analyzed by flow cytometry to confirm expression on day 5 or 6. Cells were expanded for 9-10 days.
After T cell transduction and expansion, CD3/CD28 beads were removed using magnets, cells were washed twice, resuspended in fresh media and counted. Cells were plated in 12-well plates at 1×10^6 in 2 mL. One well of untransduced cells was cultured in the presence of 2 ng/mL IL15 as a control. T cells expressing regulated constructs were cultured in the absence or presence of acetazolamide (ACZ, 30, 10, 3, 1, 0.3 μM). Cell numbers were monitored by flow cytometry every 3-4 days and cells were cultured for 10-12 days. At each time point 100 μL of cells were collected from wells and analyzed by flow cytometry. Cells were split as needed. Cell cultures were maintained in 12-well plates by taking a portion and adding media in a new plate. Volumes for each well were recorded before and after split to calculate final volume in cell number assessment. IL15 or ACZ were replenished at final concentration of the fresh media added during each split.
T cell numbers were determined by flow cytometry. Empty vector (EV) transduced cell numbers decreased to background levels between 3-5 days in the absence of IL15, and cells expanded 11-fold in the presence of 2 ng/mL exogenous IL15 (FIG. 3A). T cells expressing constitutive IL15-292 and IL15-294 expanded between 18 and 21-fold, respectively, in 10 days (FIG. 3A). In T cells expressing IL15-293, maximum expansion was 9.5-11× with 30, 10, 3 μM (FIG. 3B). At the lowest concentration tested (0.3 μM), cells expanded 3.3×. These cells survived longer (0.8×) compared to EV cells without drug treatment […]. In T cells expressing IL15-295, maximum expansion was 8.2-10× with 30, 10, 3 μM and cells expanded 4.9× at the lowest concentration (0.3 μM) tested (FIG. 3C). Without drug treatment, these cells survived (0.9×) longer compared to EV.

Where two headings read alike, the source gives them in different places.

We go through 2 substances from patent US11058725B2, “CA2 compositions and methods for tunable regulation” (Obsidian Therapeutics, Inc., priority 2019, dated 2021).

As for “IL15-293: ACZ-regulated mbIL15 construct, mbIL15 linked to CA2 (M1del, L156H) DRD (AA SEQ ID NO: 24)”, the values for the concentration giving a half-maximal response (EC50) in assay [1] (read-out: EC50 of ACZ based on % IL15+ T Cells) and in assay [1] (read-out: EC50 of ACZ based on MFI of IL15) were 0.29 µM and 0.65 µM, respectively. Moreover, the “MFI of regulated mbIL15 in TIL” value was “high” in assay [2] (10 μM ACZ 24 hrs) and “low” in assay [2] (DMSO 24 hrs). Moreover, the “regulated mbIL15 expression in TIL” value came out at 42.5% in assay [2] (10 μM ACZ 24 hrs) and 17.1% in assay [2] (DMSO 24 hrs). The “IL15 expression on T cells” value in assay [3] was 11%. Further, the tumor growth result in assay [4] (group 3, NK cells transduced with regulated mbIL15, 200 mg/kg ACZ daily PO) is listed as “regress substantially”; in assay [6] (group 3, TIL transduced with regulated mbIL15, 200 mg/kg ACZ daily PO), “substantially regress”; in assay [6] (group 4, TIL transduced with regulated mbIL15, vehicle daily), “No tumor growth inhibition”. Also, the “NK cell expansion and persistence compared to groups 1 and 4” value in assay [4] (group 3, regulated mbIL15, 200 mg/kg ACZ daily PO) was “higher expansion and persistence”. For the same substance, the “regulated mbIL15 expression in NK cells” value in assay [5] was at most 10%. For the same substance, the “T cell expansion at the lowest concentration tested” value in assay [7] (ACZ 0.3 μM) was 3.3 ×. Moreover, the “maximum T cell expansion” value in assay [7] (ACZ 30, 10, 3 μM) was 9.5-11 ×. For the same substance, the “T cell survival/expansion without drug treatment” value in assay [7] (no ACZ) is on record as 0.8 ×.

Turning to “exogenous IL15: exogenous IL15 (2 ng/mL) added to control T cell cultures [reference compound]”, the T cell expansion in assay [7] (Empty vector (EV) transduced cells, 2 ng/mL exogenous IL15) worked out at 11 fold.
